Measured values reported in article PMC8662641, “Site-Specific Labeling of Endogenous Proteins Using CoLDR Chemistry” (Journal of the American Chemical Society, 2021).

Legend:
BTK-1h = biological target: T1, BTK-1h (Homo sapiens, UniProt Q06187); assay: High-throughput screening with 1h-labeled BTK; format: binding
T1 construct: The BTK kinase domain was diluted to 2 μM in the buffer, and 2 μM 1h was added; made in house
Experimental: The collection was composed of BTK binding compounds obtained in our previous luminescence screen[37] (Data set S2). […] The resulting BTK-1h (50 μL) was added to the inhibitors.

BTK = BTK (Homo sapiens, UniProt Q06187); design: BTK kinase domain was expressed and purified as previously reported; made in house; method as in Reddi et al., J. Am. Chem. Soc. 2021, 143 (13), 4979–4992; details: ref Reddi et al., J. Am. Chem. Soc. 2021, 143 (13), 4979–4992; cited from earlier work
[1] = Dataset S2A, 200 μM compound, BTK-1h, 32 °C, 10 min

Chain of BTK (Q06187 402-655 limits assumed): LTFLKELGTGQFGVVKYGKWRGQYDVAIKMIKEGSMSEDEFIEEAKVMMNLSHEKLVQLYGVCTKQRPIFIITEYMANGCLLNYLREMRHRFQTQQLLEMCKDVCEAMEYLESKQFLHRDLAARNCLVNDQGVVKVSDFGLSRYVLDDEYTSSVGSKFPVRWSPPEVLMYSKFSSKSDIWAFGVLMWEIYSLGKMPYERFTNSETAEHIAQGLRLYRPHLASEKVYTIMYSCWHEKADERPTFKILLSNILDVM
T1 sequence (Q06187 402-655): as the sequence (Q06187 402-655 limits assumed) above

Structure (SMILES)	FI (650)/FI (620) (BTK-1h; [1])	FI (BTK-1h)/FI (BTK-1h+Inhibitor) at 620 nm (BTK-1h; [1])	FI (BTK-1h)/FI (BTK-1h+Inhibitor) at 620 nm (BTK-1h; Dataset S2B, 200 μM inhibitor added to BTK-1h (2 μm))	BTK Inhibition reported in luminescence assay* (BTK)
CN1c2ccccc2C(=O)Nc2cnc(Nc3ccc(N4CCC(O)CC4)cc3)nc21 [PCM-0215745-001]	1.794	1.194		93.8
COc1ccc(-c2nc(-c3cc(C(F)(F)F)cc(C(F)(F)F)c3)n(Cc3ccc(C(N)=O)cc3)c2-c2ccc(OC)cc2)cc1 [PCM-0215748-001]	0.9815	1.0289		57.1
COc1ccc(CC(=O)Nc2nc3c(s2)CCc2ccccc2-3)cc1OC [PCM-0215753-001]	0.9809	1.022		55.9
Cc1cc(O)c(-c2ccc([C@@H](C)CN)cc2)c2c1[nH]c(=O)c1sccc12 [PCM-0215772-001]	1.102	1.063		70.3
CC(C)(C)c1cc(NC(=O)Nc2ccc(Oc3ccnc4[nH]c(=O)cnc34)cc2F)n(-c2ccccc2)n1 [PCM-0215780-001]	1.123	1.039		61.4
C=CC(=O)N1CC[C@@H](Oc2nc(Nc3ccc(N4CCC(N5CCN(C)CC5)CC4)cc3)c(C(N)=O)nc2CC)C1 [PCM-0215788-001]	1.046	1.04		91
Cn1cc(C2=C(c3cccc(N)c3)C(=O)NC2=O)c2ccccc21 [PCM-0215795-001]	1.701	1.062		80.3
OC1CCC(Oc2cccc3cnc(Nc4ccc5nc[nH]c5c4)nc23)CC1 (stereo not shown) [PCM-0215798-001]	1.285	1.0276		66.2
Cc1cc(C(=O)Nc2nc3cccc(Cl)c3n2[C@@H]2CCCCN(C(=O)/C=C/CN(C)C)C2)ccn1 [PCM-0215804-001]	1.045	1.069		73.8
O=[N+]([O-])c1ccc(Nc2ccccc2-c2ccccc2)c2nonc12 [PCM-0215806-001]	1.017	1.01		74.1
COCCCc1sc(-c2ccccc2)nc1C(=O)Nc1ccccc1-c1nc2cc(CN3CCCC3)cnc2s1.Cl [PCM-0215812-001]	0.6133	1.029		57.9
O=C(c1ccccc1O)c1[nH]c(Cl)c(Cl)c1-n1c(C(=O)c2ccccc2O)cc(Cl)c1Cl [PCM-0215850-001]	1.151	1.016		117.4
CC/C(=C(/c1ccc(/C=C/C(=O)O)cc1)c1ccc2[nH]ncc2c1)c1ccc(F)cc1Cl [PCM-0216010-001]	1.58	1.142		81.1
Cc1nc(Nc2ccc(F)cc2)nc(N2CCc3ccccc3C2C)c1C.Cl (stereo not shown) [PCM-0216015-001]	1.147	1.02		79.3
Cc1cnc(C(=O)N[C@H]2CCCCC/C=C\[C@@H]3C[C@@]3(C(=O)NS(=O)(=O)C3CC3)NC(=O)[C@@H]3C[C@@H](Oc4nc5ccccc5c5ccccc45)CN3C2=O)cn1 [PCM-0216057-001]	0.9612	1.053		53.3
COS(=O)(=O)[O-].C[n+]1c2ccccc2nc2ccccc21 [PCM-0216061-001]	1.059	1.045		64.9
COc1c(-c2ccc3cc(NS(C)(=O)=O)ccc3c2)cc(-n2ccc(=O)[nH]c2=O)cc1C(C)(C)C [PCM-0216081-001]	0.9511	1.031		73.4
Nc1ccc(O)cc1 [PCM-0216110-001]	1.311	1.005		82.6
Cn1cc(-c2cc(Oc3cc(F)c(NC(=O)C4(C(=O)Nc5ccccc5)CC4)cc3F)ccn2)cn1 [PCM-0216116-001]	1.3565	1.092		88.8
CC(C)=CCc1cc2c(cc1O)O[C@H](c1ccc(O)cc1)CC2=O [PCM-0216180-001]	1.0081	1.015		54.1

More lines, main results first:

FI (650)/FI (620) (BTK-1h; [1])	FI (BTK-1h)/FI (BTK-1h+Inhibitor) at 620 nm (BTK-1h; [1])	FI (BTK-1h)/FI (BTK-1h+Inhibitor) at 620 nm (BTK-1h; Dataset S2B, 200 μM inhibitor added to BTK-1h (2 μm))	Structure (SMILES)	BTK Inhibition reported in luminescence assay* (BTK)
3.101	1.308		CCCCCC/C=C\CCCCCCCc1cccc(O)c1C(=O)O [PCM-0216327-001]	84.2
1.074	1.011		CC(C)=CCC/C(C)=C/Cc1c(O)c(CC=C(C)C)c2c(c1O)C(=O)C1=C[C@@H]3C[C@H]4C(C)(C)O[C@@](C/C=C(/C)C(=O)O)(C3=O)[C@@]14O2 [PCM-0216347-001]	100.4
1.5271	1.051		COc1cc(-c2oc3cc(O)cc(O)c3c(=O)c2O)ccc1O [PCM-0216402-001]	73.4
4.394	1.081	4.394	O=c1cc(-c2ccc(O)cc2)oc2cc(O)c(O)c(O)c12 [PCM-0216408-001, Scutellarein]	70.3
0.9224	1.025		COc1cc(C[C@H](C)[C@H](C)Cc2ccc3c(c2)OCO3)ccc1O [PCM-0216424-001]	68.7
1.085	1.022		COc1c(O)c(C)cc2c1C(=O)c1c(O)cccc1C2=O [PCM-0216457-001]	64.1
2.385	1.063		COc1cc(O)c2c(=O)cc(-c3ccc(O)c(O)c3)oc2c1 [PCM-0216461-001]	61
1.203	0.9862		COc1ccc2cc3[n+](cc2c1O)CCc1cc2c(cc1-3)OCO2.[Cl-] [PCM-0216489-001]	97.3
2.134	0.9621		COc1cc(/C=C/C(=O)CC(=O)/C=C/c2ccc(O)cc2)ccc1O [PCM-0216521-001]	110.4
0.7503	1.048		C[C@@H]1O[C@@H](O[C@H]2[C@H](O[C@H]3CC[C@@]4(C)[C@@H](CC[C@]5(C)[C@@H]4CC=C4[C@@H]6CC(C)(C)CC[C@]6(C(=O)O)CC[C@]45C)[C@]3(C)CO)OC[C@H](O[C@@H]3O[C@H](CO)[C@@H](O)[C@H](O)[C@H]3O)[C@@H]2O)[C@H](O)[C@H](O)[C@H]1O [PCM-0216539-001]	52.5
